Legend:
EPHA7 = target: T1, EPHA7 (Homo sapiens, UniProt Q15375); assay: NanoBRET target engagement, Tracer K10 displacement in live HEK293 cells; type: cell-based; settings: […] h, […] C, n = […]
T1 construct: full-length kinase, C-terminal NanoLuc fusion, transfected HEK293 cells

EPHA1 = target: T2, EPHA1 (Homo sapiens, UniProt P21709); assay: as above; type: cell-based; settings: […] h, […] C, n = […]
T2 construct: full-length kinase, C-terminal NanoLuc fusion, transfected HEK293 cells
Description: NanoBRET target engagement, Tracer K10 displacement in live HEK293 cells on EPHA1

AURKC = target: T3, AURKC (Homo sapiens, UniProt Q9UQB9); assay: as above; type: cell-based; settings: […] h, […] C, n = […]
T3 construct: full-length kinase, C-terminal NanoLuc fusion, transfected HEK293 cells
Description: NanoBRET target engagement, Tracer K10 displacement in live HEK293 cells on AURKC

NTRK2 = target: T4, NTRK2 (Homo sapiens, UniProt Q16620); assay: as above; type: cell-based; settings: […] h, […] C, n = […]
T4 construct: full-length kinase, C-terminal NanoLuc fusion, transfected HEK293 cells
Description: NanoBRET target engagement, Tracer K10 displacement in live HEK293 cells on NTRK2

LTK = LTK (Homo sapiens, UniProt P29376); assay: cell-based; parameters: species or system HEK293; NanoBRET live-cell target engagement; % occupancy from displacement of tracer K10 on NanoLuc-kinase fusions, mean n=3; settings: D=C; E=100; % occupancy, tracer K10 displacement; 1 µM; binder
Description: (§1) • 18. Prepare 10× test compounds in OptiMEM • a. Dilute the test compound to 1000× in DMSO (or the test compound solvent). […] Add 10μL per well of 10× test compound or 10μL of the DMSO control to the 96-well plates containing cells with 1× tracer. Mix on orbital shaker for 15 s at 900 rpm. • 20. Incubate the plate at 37°C + 5% CO2 incubator for 2hr. Allow plate to cool to RT for ∼15 min, then proceed to NanoBRET^TM Assay section below. • 21. Immediately before the BRET measurements, prepare 3× Complete NanoBRET^TM Nano-Glo® Substrate in OptiMEM without serum or phenol red. […] Mix gently by inverting 5–10 times in a conical tube. (The final concentration of Extracellular NanoLuc inhibitor in the 3× solution is 60 μM, for a working concentration of 20 μM.) • a. Note: 3× solutions should be used within 1.5 h after preparation. • 22. […] Incubate 2–3 min at RT. Following addition of NanoBRET^TM Nano-Glo® Substrate, measure donor emission (e.g., 450 nm) and acceptor emission (e.g., 610 nm or 630 nm) using a NanoBRET™-compatible luminometer. Fractional occupancy Quantitation • 2. Determine Fractional Occupancy with the following equation; % Occupancy = [1 – (X – Z)/( Y – Z)]∗100 • Where: • X = BRET in the presence of the test compound and tracer, • Y = BRET in the presence of the 100% BRET Control (Tracer + DMSO) • Z = BRET for the Zero BRET Control, e.g., • a. […]

STK33 = STK33 (Homo sapiens, UniProt Q9BYT3); assay: cell-based; parameters: species or system HEK293; NanoBRET live-cell target engagement; % occupancy from displacement of tracer K10 on NanoLuc-kinase fusions, mean n=3; settings: HEK293; D=N; E=250; % occupancy, tracer K10 displacement
Description: as §1

STK10 = STK10 (Homo sapiens, UniProt O94804); assay: cell-based; parameters: NanoBRET live-cell target engagement; % occupancy from displacement of tracer K10 on NanoLuc-kinase fusions, mean n=3; settings: HEK293, read-out: % inhibition
In short: (§2)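 Live-cell NanoBRET target engagement: cells expressing kinase–NanoLuc fusion with tracer treated with compound 2 h at 37 °C, 5% CO2. BRET read from donor (450 nm) and acceptor (610/630 nm) emission with 20 μM extracellular NanoLuc inhibitor; % occupancy calculated relative to tracer+DMSO and zero-BRET controls.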

NIM1K = NIM1K (Homo sapiens, UniProt Q8IY84); assay: cell-based; parameters: NanoBRET live-cell target engagement; % occupancy from displacement of tracer K10 on NanoLuc-kinase fusions, mean n=3; settings: HEK293, read-out: % inhibition
In short: as §2

MAP3K19 = MAP3K19 (Homo sapiens, UniProt Q56UN5); assay: cell-based; parameters: NanoBRET live-cell target engagement; % occupancy from displacement of tracer K10 on NanoLuc-kinase fusions, mean n=3; settings: HEK293, read-out: % inhibition
In short: as §2

CDK14 = CDK14 (Homo sapiens, UniProt O94921); assay: cell-based; parameters: NanoBRET live-cell target engagement; % occupancy from displacement of tracer K10 on NanoLuc-kinase fusions, mean n=3; settings: HEK293, read-out: % inhibition
In short: as §2

MAP3K9 = MAP3K9 (Homo sapiens, UniProt P80192); assay: cell-based; parameters: NanoBRET live-cell target engagement; % occupancy from displacement of tracer K10 on NanoLuc-kinase fusions, mean n=3; settings: HEK293, read-out: % inhibition
In short: as §2

STK3 = STK3 (Homo sapiens, UniProt Q13188); assay: cell-based; parameters: NanoBRET live-cell target engagement; % occupancy from displacement of tracer K10 on NanoLuc-kinase fusions, mean n=3; settings: HEK293, read-out: % inhibition
In short: as §2

STK11 = STK11 (Homo sapiens, UniProt Q15831); assay: cell-based; parameters: NanoBRET live-cell target engagement; % occupancy from displacement of tracer K10 on NanoLuc-kinase fusions, mean n=3; settings: HEK293, read-out: % inhibition
In short: as §2

AXL = target: T5, AXL (Homo sapiens, UniProt P30530); assay: NanoBRET target engagement, Tracer K10 displacement in live HEK293 cells; type: cell-based; settings: […] h, […] C, n = […]
T5 construct: full-length kinase, C-terminal NanoLuc fusion, transfected HEK293 cells

EPHB1 = target: T6, EPHB1 (Homo sapiens, UniProt P54762); assay: as above; type: cell-based; settings: […] h, […] C, n = […]
T6 construct: full-length kinase, C-terminal NanoLuc fusion, transfected HEK293 cells
Description: NanoBRET target engagement, Tracer K10 displacement in live HEK293 cells on EPHB1

EPHB4 = target: T7, EPHB4 (Homo sapiens, UniProt P54760); assay: as above; type: cell-based; settings: […] h, […] C, n = […]
T7 construct: full-length kinase, C-terminal NanoLuc fusion, transfected HEK293 cells
Description: NanoBRET target engagement, Tracer K10 displacement in live HEK293 cells on EPHB4

SBK3 = target: T8, SBK3 (Homo sapiens, UniProt P0C264); assay: as above; type: cell-based; settings: […] h, […] C, n = […]
T8 construct: full-length kinase, N-terminal NanoLuc fusion, transfected HEK293 cells
Description: NanoBRET target engagement, Tracer K10 displacement in live HEK293 cells on SBK3

NTRK1 = target: T9, NTRK1 (Homo sapiens, UniProt P04629); assay: as above; type: cell-based; settings: […] h, […] C, n = […]
T9 construct: full-length kinase, C-terminal NanoLuc fusion, transfected HEK293 cells
Description: NanoBRET target engagement, Tracer K10 displacement in live HEK293 cells on NTRK1

T7 sequence (P54760 16-987): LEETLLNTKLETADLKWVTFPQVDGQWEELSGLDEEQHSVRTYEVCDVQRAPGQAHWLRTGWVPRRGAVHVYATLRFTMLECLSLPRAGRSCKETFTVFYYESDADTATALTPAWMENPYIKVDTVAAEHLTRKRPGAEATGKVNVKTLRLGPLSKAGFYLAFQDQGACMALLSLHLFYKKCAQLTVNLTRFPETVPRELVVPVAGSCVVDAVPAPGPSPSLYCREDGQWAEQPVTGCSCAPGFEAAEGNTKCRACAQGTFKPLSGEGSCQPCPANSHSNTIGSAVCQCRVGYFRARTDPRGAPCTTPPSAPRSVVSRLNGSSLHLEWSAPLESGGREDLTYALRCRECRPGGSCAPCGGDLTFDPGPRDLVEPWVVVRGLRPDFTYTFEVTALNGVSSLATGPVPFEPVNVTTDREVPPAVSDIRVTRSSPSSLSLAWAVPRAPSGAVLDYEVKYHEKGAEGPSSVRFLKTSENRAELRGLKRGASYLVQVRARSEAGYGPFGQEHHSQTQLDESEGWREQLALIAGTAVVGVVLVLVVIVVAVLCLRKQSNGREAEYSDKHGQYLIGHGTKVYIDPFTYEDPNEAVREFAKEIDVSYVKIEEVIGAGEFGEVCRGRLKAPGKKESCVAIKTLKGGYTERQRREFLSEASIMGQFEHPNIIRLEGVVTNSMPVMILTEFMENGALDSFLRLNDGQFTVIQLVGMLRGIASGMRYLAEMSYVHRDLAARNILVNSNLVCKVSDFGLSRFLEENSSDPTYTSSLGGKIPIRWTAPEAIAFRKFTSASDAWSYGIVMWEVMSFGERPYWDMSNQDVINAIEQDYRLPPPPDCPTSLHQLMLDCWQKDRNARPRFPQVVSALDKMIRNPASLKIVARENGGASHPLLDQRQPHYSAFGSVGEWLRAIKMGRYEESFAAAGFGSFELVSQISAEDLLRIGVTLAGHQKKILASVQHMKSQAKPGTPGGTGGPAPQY
Chain of LTK (P29376 whole entry, the tested form may be a part): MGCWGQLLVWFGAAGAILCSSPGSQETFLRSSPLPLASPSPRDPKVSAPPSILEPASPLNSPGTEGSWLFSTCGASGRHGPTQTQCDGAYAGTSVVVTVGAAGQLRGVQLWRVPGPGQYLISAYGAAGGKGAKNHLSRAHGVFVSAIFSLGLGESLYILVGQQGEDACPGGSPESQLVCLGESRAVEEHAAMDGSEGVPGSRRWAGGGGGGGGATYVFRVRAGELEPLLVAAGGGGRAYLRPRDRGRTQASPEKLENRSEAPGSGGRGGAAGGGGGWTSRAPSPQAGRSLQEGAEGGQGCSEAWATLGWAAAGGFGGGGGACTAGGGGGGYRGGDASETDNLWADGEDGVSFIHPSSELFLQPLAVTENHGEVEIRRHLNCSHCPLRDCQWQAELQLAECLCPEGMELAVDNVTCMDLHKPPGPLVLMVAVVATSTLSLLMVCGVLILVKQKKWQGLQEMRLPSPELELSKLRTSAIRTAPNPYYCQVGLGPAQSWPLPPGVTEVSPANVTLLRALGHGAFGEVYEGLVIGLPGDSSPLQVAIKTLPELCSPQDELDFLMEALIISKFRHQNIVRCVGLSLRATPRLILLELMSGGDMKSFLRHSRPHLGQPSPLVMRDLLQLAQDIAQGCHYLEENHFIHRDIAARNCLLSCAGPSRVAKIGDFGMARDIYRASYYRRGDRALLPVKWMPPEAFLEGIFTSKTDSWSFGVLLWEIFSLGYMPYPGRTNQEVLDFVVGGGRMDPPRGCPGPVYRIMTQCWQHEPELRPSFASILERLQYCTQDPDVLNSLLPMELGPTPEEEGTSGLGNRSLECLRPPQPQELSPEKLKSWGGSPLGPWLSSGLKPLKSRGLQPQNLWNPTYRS
T1 sequence (Q15375 28-998): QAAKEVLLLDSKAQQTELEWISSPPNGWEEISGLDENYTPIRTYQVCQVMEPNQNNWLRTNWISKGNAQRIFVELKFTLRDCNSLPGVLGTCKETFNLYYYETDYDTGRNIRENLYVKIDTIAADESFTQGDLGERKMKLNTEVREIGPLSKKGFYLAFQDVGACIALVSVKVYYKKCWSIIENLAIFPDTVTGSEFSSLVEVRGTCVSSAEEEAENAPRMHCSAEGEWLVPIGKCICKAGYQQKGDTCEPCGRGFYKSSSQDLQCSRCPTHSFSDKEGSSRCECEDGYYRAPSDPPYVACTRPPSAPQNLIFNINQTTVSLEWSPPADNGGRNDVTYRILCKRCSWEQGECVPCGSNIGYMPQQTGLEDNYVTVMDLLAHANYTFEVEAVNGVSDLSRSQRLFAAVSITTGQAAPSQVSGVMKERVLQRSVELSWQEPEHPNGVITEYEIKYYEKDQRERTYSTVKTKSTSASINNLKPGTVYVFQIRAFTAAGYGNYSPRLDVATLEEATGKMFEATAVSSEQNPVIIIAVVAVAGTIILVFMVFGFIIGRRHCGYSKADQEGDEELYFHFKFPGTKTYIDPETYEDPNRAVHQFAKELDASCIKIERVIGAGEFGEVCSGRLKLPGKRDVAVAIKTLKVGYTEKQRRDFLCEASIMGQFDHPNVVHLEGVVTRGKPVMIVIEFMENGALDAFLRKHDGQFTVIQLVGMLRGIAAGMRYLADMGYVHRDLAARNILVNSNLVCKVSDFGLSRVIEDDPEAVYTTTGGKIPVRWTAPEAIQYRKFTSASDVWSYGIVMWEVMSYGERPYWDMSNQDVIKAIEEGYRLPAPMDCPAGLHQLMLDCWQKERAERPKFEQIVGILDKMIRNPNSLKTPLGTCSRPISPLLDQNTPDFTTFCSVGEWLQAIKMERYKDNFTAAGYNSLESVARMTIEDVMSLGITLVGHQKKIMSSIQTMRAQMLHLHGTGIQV
Chain of STK33 (Q9BYT3 whole entry, the tested form may be a part): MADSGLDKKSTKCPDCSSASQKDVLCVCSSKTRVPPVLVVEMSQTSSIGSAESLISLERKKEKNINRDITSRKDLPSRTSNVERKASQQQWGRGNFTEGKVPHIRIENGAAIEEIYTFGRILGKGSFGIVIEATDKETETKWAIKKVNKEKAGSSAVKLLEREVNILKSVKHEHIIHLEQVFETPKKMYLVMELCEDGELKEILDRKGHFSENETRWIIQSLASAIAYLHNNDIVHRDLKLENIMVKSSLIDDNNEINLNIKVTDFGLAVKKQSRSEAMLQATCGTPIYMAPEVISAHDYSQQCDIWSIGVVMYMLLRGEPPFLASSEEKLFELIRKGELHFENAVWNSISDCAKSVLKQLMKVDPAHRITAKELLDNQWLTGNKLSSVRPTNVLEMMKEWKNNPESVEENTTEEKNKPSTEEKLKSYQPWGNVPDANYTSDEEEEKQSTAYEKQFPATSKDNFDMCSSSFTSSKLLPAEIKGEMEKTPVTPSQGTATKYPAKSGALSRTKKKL
T8 sequence (P0C264 whole entry, the tested form may be a part): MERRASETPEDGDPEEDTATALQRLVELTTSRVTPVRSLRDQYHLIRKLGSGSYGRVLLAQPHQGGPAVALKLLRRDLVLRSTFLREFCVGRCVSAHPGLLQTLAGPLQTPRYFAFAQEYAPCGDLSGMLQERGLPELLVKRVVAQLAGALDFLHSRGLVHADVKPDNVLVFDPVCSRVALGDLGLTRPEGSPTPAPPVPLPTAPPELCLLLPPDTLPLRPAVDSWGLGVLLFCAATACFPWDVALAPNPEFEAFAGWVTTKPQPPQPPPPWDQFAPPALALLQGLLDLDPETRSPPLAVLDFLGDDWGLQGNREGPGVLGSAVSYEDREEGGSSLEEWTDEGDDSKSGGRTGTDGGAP
Chain of MAP3K9 (P80192 whole entry, the tested form may be a part): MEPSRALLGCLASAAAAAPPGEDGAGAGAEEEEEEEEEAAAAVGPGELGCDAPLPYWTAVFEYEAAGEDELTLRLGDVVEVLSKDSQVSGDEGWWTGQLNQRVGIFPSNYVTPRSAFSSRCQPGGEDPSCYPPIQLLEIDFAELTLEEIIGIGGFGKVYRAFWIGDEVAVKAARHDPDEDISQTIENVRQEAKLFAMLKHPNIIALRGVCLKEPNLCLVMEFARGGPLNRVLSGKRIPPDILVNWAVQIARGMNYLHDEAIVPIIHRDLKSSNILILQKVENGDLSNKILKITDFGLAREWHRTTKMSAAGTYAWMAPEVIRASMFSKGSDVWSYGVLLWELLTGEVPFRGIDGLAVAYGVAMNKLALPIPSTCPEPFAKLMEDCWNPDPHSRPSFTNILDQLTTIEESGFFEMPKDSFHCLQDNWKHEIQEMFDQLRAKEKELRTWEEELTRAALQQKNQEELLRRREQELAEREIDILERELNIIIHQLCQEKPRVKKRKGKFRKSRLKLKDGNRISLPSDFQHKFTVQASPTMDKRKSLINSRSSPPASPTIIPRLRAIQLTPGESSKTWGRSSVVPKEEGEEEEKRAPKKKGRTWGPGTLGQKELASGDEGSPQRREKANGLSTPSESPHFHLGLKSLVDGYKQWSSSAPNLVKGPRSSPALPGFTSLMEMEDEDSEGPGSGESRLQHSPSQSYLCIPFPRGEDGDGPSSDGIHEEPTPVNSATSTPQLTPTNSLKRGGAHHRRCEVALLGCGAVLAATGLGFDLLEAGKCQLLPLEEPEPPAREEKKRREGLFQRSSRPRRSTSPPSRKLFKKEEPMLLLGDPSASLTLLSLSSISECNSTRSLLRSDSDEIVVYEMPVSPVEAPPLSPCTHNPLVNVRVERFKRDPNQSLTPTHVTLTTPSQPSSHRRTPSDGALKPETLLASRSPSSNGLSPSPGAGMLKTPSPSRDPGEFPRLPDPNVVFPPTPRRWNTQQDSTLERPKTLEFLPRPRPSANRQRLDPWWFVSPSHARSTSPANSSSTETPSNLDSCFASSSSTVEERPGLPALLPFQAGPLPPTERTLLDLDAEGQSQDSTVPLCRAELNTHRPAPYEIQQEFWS

C[C@@H](Oc1cc(-c2cnn(C3CCNCC3)c2)cnc1N)c1c(Cl)ccc(F)c1Cl [crizotinib]
Crizotinib % occupancy, 1 uM (EPHA7): 38 ± 2.4%
Crizotinib % occupancy, 1 uM (EPHA1): 75 ± 2.2%
Crizotinib % occupancy, 1 uM (AURKC): 48 ± 4.2%
Crizotinib % occupancy, 1 uM (NTRK2): 85 ± 2.3%
% inhibition (LTK): 87%
inhibition at 1 µM (STK33): -3%
inhibition at 1 µM (STK10): 35%
inhibition at 1 µM (NIM1K): -3%
inhibition at 1 µM (MAP3K19): 6%
inhibition at 1 µM (CDK14): 0%
inhibition at 1 µM (MAP3K9): -1%
inhibition at 1 µM (STK3): 1%
inhibition at 1 µM (STK11): -1%
Crizotinib % occupancy, 1 uM (AXL): 68 ± 1.5%
Crizotinib % occupancy, 1 uM (EPHB1): 68 ± 2.0%
Crizotinib % occupancy, 1 uM (EPHB4): 62 ± 3.6%
Crizotinib % occupancy, 1 uM (SBK3): 41 ± 5.6%
Crizotinib % occupancy, 1 uM (NTRK1): 71 ± 2.5%
